Test results reported in patent publication US7452904B2, “1-alkyl-1-azoniabicyclo' 2.2.2 octane carbamate derivatives and their use as muscarinic receptor antagonists” (Chiesi Farmaceutici S.p.A., priority 2001, dated 2008).

Experiments:
human M3 receptors = biological target: T1, human M3 receptors (Homo sapiens, UniProt P20309); assay: Binding test to human M3 muscarinic receptor ([3H]-NMS displacement); details: membranes from CHO-K1 cells transfected with human M3 receptor; [3H]-NMS 0.3-0.5 nM, 60 min, 25° C.; mean of two independent experiments, each in duplicate
T1 construct: expressed in transfected cells; host or cells: CHO-K1
T1 sequence (P20309 whole entry): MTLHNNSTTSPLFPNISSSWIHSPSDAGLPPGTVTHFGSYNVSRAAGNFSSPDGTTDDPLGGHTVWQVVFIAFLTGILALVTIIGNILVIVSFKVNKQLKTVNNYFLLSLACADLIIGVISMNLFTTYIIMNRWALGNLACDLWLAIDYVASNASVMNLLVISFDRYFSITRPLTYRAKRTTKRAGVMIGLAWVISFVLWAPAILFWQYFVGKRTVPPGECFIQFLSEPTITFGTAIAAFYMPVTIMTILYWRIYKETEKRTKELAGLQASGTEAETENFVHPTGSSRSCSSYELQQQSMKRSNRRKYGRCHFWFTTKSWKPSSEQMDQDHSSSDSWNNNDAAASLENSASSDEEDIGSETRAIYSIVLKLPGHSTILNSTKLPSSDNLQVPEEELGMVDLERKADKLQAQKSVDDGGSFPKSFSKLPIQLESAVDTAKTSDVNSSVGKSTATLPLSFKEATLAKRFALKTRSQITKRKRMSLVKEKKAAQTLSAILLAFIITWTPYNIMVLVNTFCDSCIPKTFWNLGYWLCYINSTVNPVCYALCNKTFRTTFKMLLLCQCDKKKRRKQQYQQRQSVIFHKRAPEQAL
Procedure: (§1) Binding Test to Human M2 and M3 Muscarinic Receptors
(§2) Membranes from CHO—K1 cells transfected with human M2 or M3 receptors were used. The summarised experimental procedure for both receptors was the following: cell membranes (15-20 μg) were incubated with [^3H]-NMS (0.3-0.5 nM) for 60 min at 25° C., in presence or absence of the antagonists. Incubation was carried out in 96 wells polystyrene microplates in a total incubation volume of 0.2 mL of PBS pH 7.4. Non specific binding was determined in parallel assays in presence of atropine (5 μM). Samples were filtered through type GF/C glass fibre, preincubated with PEI 0.3%. Filters were washed 3-4 times with 50 mM Tris-HCl, 0.9% NaCl, pH 7.4 at 4° C., and dried at 50° C. for 45 min. Filter bound radioactivity was quantified by liquid scintillation counting.
(§3) For the calculation of the inhibition constant (Ki), displacement curves were analysed by non-linear regression (GraphPad Prism). Dissociation constant (Kd) of [^3H]-NMS for each receptor was obtained through the saturation curves obtained in the same conditions as the experiments carried out with the corresponding antagonists.

human M2 receptors = biological target: T2, human M2 receptors (Homo sapiens, UniProt P08172); assay: Binding test to human M2 muscarinic receptor ([3H]-NMS displacement), reported as M2/M3 selectivity; details: ratio of Ki at cloned human M2 versus M3 receptors; ratios greater than 1 indicate M3 selective activity
T2 construct: expressed in transfected cells; host or cells: CHO-K1
T2 sequence (P08172 1-466): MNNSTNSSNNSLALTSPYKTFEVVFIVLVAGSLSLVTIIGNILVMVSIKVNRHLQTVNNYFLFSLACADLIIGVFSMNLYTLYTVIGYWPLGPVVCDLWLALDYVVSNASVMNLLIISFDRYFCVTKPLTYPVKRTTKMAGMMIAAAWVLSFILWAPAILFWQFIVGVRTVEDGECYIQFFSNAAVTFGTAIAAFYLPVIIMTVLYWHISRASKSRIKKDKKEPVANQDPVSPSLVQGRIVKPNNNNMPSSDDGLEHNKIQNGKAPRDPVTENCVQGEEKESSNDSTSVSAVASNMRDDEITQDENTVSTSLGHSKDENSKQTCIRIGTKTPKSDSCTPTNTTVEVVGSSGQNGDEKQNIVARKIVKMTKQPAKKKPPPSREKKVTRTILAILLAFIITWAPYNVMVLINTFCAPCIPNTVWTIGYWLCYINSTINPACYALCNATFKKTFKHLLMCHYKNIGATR
Procedure: as §1, §2, §3

Cc1cccc(N(Cc2ccsc2)C(=O)O[C@H]2CN3CCC2CC3)c1.Cl [Int. 32, (R)-Thiophen-3-ylmethyl-m-tolylcarbamic acid 1-azabicyclo[2.2.2]oct-3-yl ester; hydrochloride]
Ki (human M3 receptors): 0.15 nM
M2/M3 (ratio) (human M2 receptors): 23 ratio

O=C(O[C@H]1C[N+]2(CCCOc3ccccc3)CCC1CC2)N(Cc1ccc(F)cc1)c1ccccc1.[Br-] [Ex. 11, (R)-3-[(4-Fluorobenzyl)phenylcarbamoyloxy]-1-(3-phenoxypropyl)-1-azoniabicyclo[2.2.2]octane; bromide]
Ki (human M3 receptors): 0.34 nM
M2/M3 (ratio) (human M2 receptors): 80 ratio

O=C(O[C@H]1CN2CCC1CC2)N1CCc2ccccc2[C@@H]1c1ccccc1 [SOLIFENACIN, solifenacin, reference compound]
Ki (human M3 receptors): 8.3 nM
M2/M3 (ratio) (human M2 receptors): 10 ratio

O=C(C[N+]12CCC(CC1)[C@@H](OC(=O)N(Cc1ccsc1)c1cccc(F)c1)C2)c1ccccc1.[Br-] [Ex. 69, (R)-3-[(3-Fluorophenyl)thiophen-3-ylmethylcarbamoyloxy]-1(2-oxo-2-phenylethyl)-1-azoniabicyclo[2.2.2]octane; bromide]
Ki (human M3 receptors): 0.02 nM
M2/M3 (ratio) (human M2 receptors): 32 ratio

Cl.O=C(O[C@H]1CN2CCC1CC2)N(Cc1ccc(Cl)s1)c1cccc(F)c1 [Int. 29, (R)-(5-Chlorothiophen-2-ylmethyl)-(3-fluorophenyl)carbamic acid 1-azabicyclo[2.2.2]oct-3-yl ester; hydrochloride]
Ki (human M3 receptors): 0.02 nM
M2/M3 (ratio) (human M2 receptors): 105 ratio

O=C(O[C@H]1C[N+]2(CCSc3ccccc3)CCC1CC2)N(Cc1cc(F)c(F)c(F)c1)c1ccccc1F.[Cl-] [Ex. 50, (R)-3-[(2-Fluorophenyl)-(3,4,5-trifluorobenzyl)carbamoyloxy]-1-(2-phenylsulfanylethyl)-1-azoniabicyclo[2.2.2]octane; chloride]
Ki (human M3 receptors): 0.06 nM
M2/M3 (ratio) (human M2 receptors): 345 ratio
